Experimental findings from patent publication US20120142667A1, “PYRIMIDINE DERIVATIVES AS ZAP-70 INHIBITORS” (priority 2009, published 2012) are described below.

Counter-ions that a name gives are not always drawn.

The target of the assay is T1, ZAP-70 (Homo sapiens, UniProt P43403).
T1 construct: endogenous in cells; host or cells: cell lysate
T1 sequence (P43403 1-619): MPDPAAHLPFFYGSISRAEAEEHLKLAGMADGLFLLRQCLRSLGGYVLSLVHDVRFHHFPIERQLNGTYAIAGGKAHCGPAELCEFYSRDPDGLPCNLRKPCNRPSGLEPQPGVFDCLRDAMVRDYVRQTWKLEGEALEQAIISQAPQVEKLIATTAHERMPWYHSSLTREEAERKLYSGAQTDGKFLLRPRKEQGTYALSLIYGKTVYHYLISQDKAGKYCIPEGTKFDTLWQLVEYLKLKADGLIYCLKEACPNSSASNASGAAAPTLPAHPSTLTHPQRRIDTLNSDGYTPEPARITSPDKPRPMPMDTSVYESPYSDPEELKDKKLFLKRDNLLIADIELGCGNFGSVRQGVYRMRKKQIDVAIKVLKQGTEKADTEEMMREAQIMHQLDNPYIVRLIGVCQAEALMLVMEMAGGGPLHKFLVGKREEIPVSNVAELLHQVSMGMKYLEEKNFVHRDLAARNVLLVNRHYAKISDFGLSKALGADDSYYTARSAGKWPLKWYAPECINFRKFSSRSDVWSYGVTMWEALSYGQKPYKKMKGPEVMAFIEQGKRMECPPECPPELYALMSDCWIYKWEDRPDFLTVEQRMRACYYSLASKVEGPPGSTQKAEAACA
The assay can be described thus: ZAP-70 kinobeads assay. Conditions: cell lysate. It is filed as binding. On the procedure: The compounds of the present invention as described in the previous examples can be tested in the ZAP-70 kinobeads assay as described (EP-A 1862802 and WO-A 2007/137867). Briefly, test compounds (at various concentrations) and the affinity matrix with the immobilized aminopyrido-pyrimidine ligand 24 are added to cell lysate aliquots and allowed to bind to the proteins in the lysate sample. After the incubation time the beads with captured proteins are separated from the lysate. Bound proteins are then eluted and the presence ZAP-70 is detected and quantified using a specific antibody in a dot blot procedure and the Odyssey infrared detection system.
In the case of `COc1ccc(Nc2nc(Nc3cc(C)c(OC)cc3OC)ncc2Cl)c(NS(C)(=O)=O)c1` [Example 39, N-(2-(5-chloro-2-(2,4-dimethoxy-5-methylphenylamino)pyrimidin-4-ylamino)-5-methoxyphenyl)methanesulfonamide], the IC50 (as a rule, the concentration needed to halve the response being measured) is 100 to 1000 nM. In the case of `Cc1ccccc1Nc1ncc(Br)c(Nc2ccccc2NS(C)(=O)=O)n1` [Example 24, N-(2-(5-bromo-2-(2-methylphenylamino)pyrimidin-4-ylamino)phenyl)methanesulfonamide hydrochloride], the half-inhibitory concentration (IC50) is 100 to 1000 nM. Compound `COc1ccc(OCCO)cc1Nc1ncc(F)c(Nc2cccc(C)c2NS(C)(=O)=O)n1` [Example 103, N-(2-(5-fluoro-2-(5-(2-hydroxyethoxy)-2-methoxyphenylamino)pyrimidin-4-ylamino)-6-methylphenyl)methanesulfonamide] registered an IC50 of 1000 to 10000 nM. In turn, `COc1ccc(Nc2nc(Nc3ccc(OC)nc3OC)ncc2Cl)c(NS(C)(=O)=O)c1` [Example 36, N-(2-(5-chloro-2-(2,6-dimethoxypyridin-3-ylamino)pyrimidin-4-ylamino)-5-methoxyphenyl)methanesulfonamide] returned an IC50 of 100 to 1000 nM. Take `CS(=O)(=O)Nc1ccccc1Nc1nc(Nc2ccccc2OC(F)F)ncc1Br` [Example 6, N-(2-(5-bromo-2-(2-(difluoromethoxy)phenylamino)pyrimidin-4-ylamino)phenyl)methanesulfonamide]: the 50% inhibitory concentration (IC50) was 1000 to 10000 nM.

`COc1ccc(Nc2nc(Nc3ccc(C)cc3OC)ncc2Cl)c(NS(C)(=O)=O)c1` [Example 62, N-(2-(5-chloro-2-(2-methoxy-4-methylphenylamino)pyrimidin-4-ylamino)-5-methoxyphenyl)methanesulfonamide hydrochloride]: the IC50 is 100 to 1000 nM. With `COc1ccc(Nc2nc(Nc3cc(OC)c(F)cc3F)ncc2Cl)c(NS(C)(=O)=O)c1` [Example 58, N-(2-(5-chloro-2-(2,4-difluoro-5-methoxyphenylamino)pyrimidin-4-ylamino)-5-methoxyphenyl)methanesulfonamide hydrochloride], the IC50 was 100 to 1000 nM.

Take `COc1ccc(Nc2nc(Nc3cc4c(cc3OC)OCCO4)ncc2Cl)c(NS(C)(=O)=O)c1` [Example 40, N-(2-(5-chloro-2-(7-methoxy-2,3-dihydrobenzo[b][1,4]dioxin-6-ylamino)pyrimidin-4-ylamino)-5-methoxyphenyl)methanesulfonamide]: the 50% inhibitory concentration (IC50) fell in the range of 100 to 1000 nM. Next, `COc1ccc(Nc2nc(Nc3c[nH]c(=O)cc3C)ncc2Cl)c(NS(C)(=O)=O)c1` [Example 82, N-(2-(5-chloro-2-(4-methyl-6-oxo-1,6-dihydropyridin-3-ylamino)pyrimidin-4-ylamino)-5-methoxyphenyl)methanesulfonamide]: 100 to 1000 nM; `COc1ccc(Nc2nc(Nc3ccc(C)cc3C)ncc2Cl)c(NS(C)(=O)=O)c1` [Example 59, N-(2-(5-chloro-2-(2,4-dimethylphenylamino)pyrimidin-4-ylamino)-5-methoxyphenyl)methanesulfonamide hydrochloride]: 100 to 1000 nM; `COc1ccc(Nc2nc(Nc3ccc(OCC(N)=O)cc3C)ncc2Cl)c(NS(C)(=O)=O)c1` [Example 90, 2-(4-((5-chloro-4-((4-methoxy-2-(methylsulfonamido)phenyl)amino)pyrimidin-2-yl)amino)-3-methylphenoxy)acetamide]: at most 100 nM. For `COc1ccc(OCCO)cc1Nc1ncc(Cl)c(Nc2cccc(F)c2NS(C)(=O)=O)n1` [Example 116, N-(2-(5-chloro-2-(5-(2-hydroxyethoxy)-2-methoxyphenylamino)pyrimidin-4-ylamino)-6-fluorophenyl)methanesulfonamide], the IC50 lay in the range of 100 to 1000 nM. In the case of `COc1ccc(Nc2nc(Nc3nc(OC)ccc3Cl)ncc2Cl)c(NS(C)(=O)=O)c1` [Example 99, N-(2-(5-chloro-2-(3-chloro-6-methoxypyridin-2-ylamino)pyrimidin-4-ylamino)-5-methoxyphenyl)methanesulfonamide], the IC50 lay within 1000 to 10000 nM.

`CS(=O)(=O)Nc1ccccc1Nc1nc(Nc2ccccc2F)ncc1Br` [Example 17, N-(2-(5-bromo-2-(2-fluorophenylamino)pyrimidin-4-ylamino)phenyl)methanesulfonamide hydrochloride] had an IC50 of 100 to 1000 nM. With `COC(=O)CCc1ccc(OC)c(Nc2ncc(Cl)c(Nc3ccc(OC)cc3NS(C)(=O)=O)n2)c1` [Example 115, Methyl 3-(3-(5-chloro-4-(4-methoxy-2-(methylsulfonamido)phenylamino)pyrimidin-2-ylamino)-4-methoxyphenyl)propanoate] the figure was 1000 to 10000 nM; with `COc1ccc(Nc2nc(Nc3ccccc3C)ncc2Cl)c(NS(C)(=O)=O)c1` [Example 50, N-(2-(5-chloro-2-(o-tolylamino)pyrimidin-4-ylamino)-5-methoxyphenyl)methanesulfonamide hydrochloride], 100 to 1000 nM; with `COc1ccc(Nc2nc(Nc3cc(OC)ccc3OC)ncc2Br)c(NS(C)(=O)=O)c1` [Example 23, N-(2-(5-bromo-2-(2,5-dimethoxyphenylamino)pyrimidin-4-ylamino)-5-methoxyphenyl)methanesulfonamide], 100 to 1000 nM. Take `CS(=O)(=O)Nc1ccccc1Nc1nc(Nc2ccccc2F)ncc1F` [Example 1, N-(2-(5-fluoro-2-(2-fluorophenylamino)pyrimidin-4-ylamino)phenyl)methanesulfonamide]: the IC50 lay in the range of 1000 to 10000 nM.

Compound `COc1ccc(Nc2ncc(Cl)c(Nc3ccc(OC)cc3NS(C)(=O)=O)n2)c(F)c1` [Example 33, N-(2-(5-chloro-2-(2-fluoro-4-methoxyphenylamino)pyrimidin-4-ylamino)-5-methoxyphenyl)methanesulfonamide] came in with a half-inhibitory concentration (IC50) of 100 to 1000 nM. Next, `COc1ccc(Nc2ncc(Cl)c(Nc3ccc(OC)cc3NS(C)(=O)=O)n2)c(C)c1` [Example 35, N-(2-(5-chloro-2-(4-methoxy-2-methylphenylamino)pyrimidin-4-ylamino)-5-methoxyphenyl)methanesulfonamide]: 100 to 1000 nM; `COc1cc(OC)c(OC)cc1Nc1ncc(Br)c(Nc2ccccc2NS(C)(=O)=O)n1` [Example 31, N-(2-(5-bromo-2-(2,4,5-trimethoxyphenylamino)pyrimidin-4-ylamino)phenyl)methanesulfonamide]: 100 to 1000 nM.

As to `COc1ccc(Nc2nc(Nc3cccc(OCCC(F)(F)F)c3C)ncc2Cl)c(NS(C)(=O)=O)c1` [Example 98, N-(2-((5-chloro-2-((2-methyl-3-(3,3,3-trifluoropropoxy)phenyl)amino)pyrimidin-4-yl)amino)-5-methoxyphenyl)methanesulfonamide], the concentration for half-maximal inhibition (IC50) is 100 to 1000 nM. Compound `COc1ccc(Nc2nc(Nc3ccc(F)c(F)c3OC)ncc2Cl)c(NS(C)(=O)=O)c1` [Example 46, N-(2-(5-chloro-2-(3,4-difluoro-2-methoxyphenylamino)pyrimidin-4-ylamino)-5-methoxyphenyl)methanesulfonamide] returned a concentration for half-maximal inhibition (IC50) of 1000 to 10000 nM. With `COc1cc(OCCCN2CCCCC2)ccc1Nc1ncc(Br)c(Nc2ccccc2NS(C)(=O)=O)n1` [Example 28, N-(2-(5-bromo-2-(2-methoxy-4-(3-(piperidin-1-yl)propoxy)phenylamino)pyrimidin-4-ylamino)phenyl)methanesulfonamide], the IC50 was at most 100 nM. In turn, `COc1ccc(Nc2nc(Nc3cc(OCCN)ccc3F)ncc2Cl)c(NS(C)(=O)=O)c1` [Example 66, N-(2 (2 (5 (2 aminoethoxy)-2-fluorophenylamino)-5-chloropyrimidin-4-ylamino)-5-methoxyphenyl)methanesulfonamide] yielded a concentration for half-maximal inhibition (IC50) of 100 to 1000 nM.

In turn, `COc1ccc(Nc2nc(Nc3ccc(OC)cc3OC)ncc2Cl)c(NS(C)(=O)=O)c1` [Example 34, N-(2-(5-chloro-2-(2,4-dimethoxyphenylamino)pyrimidin-4-ylamino)-5-methoxyphenyl)methanesulfonamide] returned a 50% inhibitory concentration (IC50) of 100 to 1000 nM. In turn, `COc1ccc(Nc2nc(Nc3cccc(F)c3F)ncc2Cl)c(NS(C)(=O)=O)c1` [Example 60, N-(2-(5-chloro-2-(2,3-difluorophenylamino)pyrimidin-4-ylamino)-5-methoxyphenyl)methanesulfonamide hydrochloride] came in with a concentration for half-maximal inhibition (IC50) of 1000 to 10000 nM. `COc1ccc(Nc2nc(Nc3cc(C)ccc3OC)ncc2Cl)c(NS(C)(=O)=O)c1` [Example 56, N-(2-(5-chloro-2-(2-methoxy-5-methylphenylamino)pyrimidin-4-ylamino)-5-methoxyphenyl)methanesulfonamide] returned an IC50 of 100 to 1000 nM. `COc1ccc(OCCO)cc1Nc1ncc(F)c(Nc2ccccc2NS(C)(=O)=O)n1` [Example 102, N-(2-(5-fluoro-2-(5-(2-hydroxyethoxy)-2-methoxyphenylamino)pyrimidin-4-ylamino)phenyl)methanesulfonamide] yielded an IC50 of 1000 to 10000 nM. `COc1ccc(C)c(Nc2ncc(F)c(Nc3ccccc3NS(C)(=O)=O)n2)c1` [Example 13, N-(2-(5-fluoro-2-(5-methoxy-2-methylphenylamino)pyrimidin-4-ylamino)phenyl)methanesulfonamide]: the concentration for half-maximal inhibition (IC50) is 1000 to 10000 nM.
